Article PMC6545003, “Cytotoxic and cell cycle arrest properties of two steroidal alkaloids isolated from Holarrhena floribunda (G. Don) T. Durand & Schinz leaves” (BMC Complementary and Alternative Medicine, 2019)
Where two headings read alike, the source gives them in different places.

Experiments:
[1] = test system: HeLa cells; test: MTT reduction assay; type: cell-based, human; conditions: for Selectivity index: HeLa versus non-cancerous KMST-6; for IC50: HeLa
Protocol: (§3) Viable cells were seeded at a density of 5 x10^4 cells/ml (100 μl/well) in 96-well plates and incubated in a humidified atmosphere of 5% CO2 and 95% air at 37°C for 24 h to form a cell monolayer. After 24 h, the cell culture medium was aspirated and 100 μl fresh medium containing varying concentrations of test compounds in log10 doses were added to the cells and the 96-well plates incubated for a further 24 h [16, 17].
(§4) After the 24 h treatments, 20 μl of 5 mg/ml MTT (prepared in PBS) was added to each well and the 96-well plates incubated for 3 h at 37°C in a 5% CO2 atmosphere. The supernatant was aspirated and 150 μl of isopropanol added to each well after which the plate was gently shaken for 15 min to solubilize the formazan crystals and the absorbance was measured at 560 nm using a Glomax Multi Detection System (Promega, USA). The percentage inhibition of cell proliferation was calculated using the formula below and IC50 values computed by non-linear regression analysis of log dose-response sigmoidal curves using GraphPad Prism version 6.05 for Windows (GraphPad Software, La Jolla California USA, www.graphpad.com). %Inhibition of Proliferation=100‐TestOD/UntreatedODx100%

[2] = test system: MCF-7 cells; test: MTT reduction assay; type: cell-based, human; conditions: for Selectivity index: MCF-7 versus non-cancerous KMST-6
Protocol: as §3, §4

[3] = test system: HT-29 cells; test: MTT reduction assay; type: cell-based, human; conditions: for Selectivity index: HT-29 versus non-cancerous KMST-6
Protocol: as §3, §4

[4] = test system: KMST-6 non-cancerous fibroblast cells; test: MTT reduction assay; type: cell-based, human
Protocol: as §3, §4

[5] = test system: HeLa cells; test: BrdU incorporation assay (chemiluminescent ELISA); type: cell-based, human; conditions: IC50 concentration
Protocol: (§1) Cells were seeded at a density of 5 × 10^4 cells/well in black-walled 96-well microtiter plates and incubated for 24 h at 37 °C in a CO2 incubator to form a monolayer. The cells were treated for 12, 24 and 48 h with the isolated compounds at concentrations equivalent to the IC50 concentrations (as determined by the MTT reduction assay). Cell proliferation was determined using the ELISA-BrdU (5-bromo-2′-deoxyuridine) chemiluminescence assay kit (Roche, Germany), according to the manufacturer’s instruction, and expressed as the percentage DNA synthesis relative to the untreated control.

[6] = test system: MCF-7 cells; test: BrdU incorporation assay (chemiluminescent ELISA); type: cell-based, human; conditions: MCF-7, IC50 concentration
Protocol: as §1

[7] = test system: HT-29 cells; test: BrdU incorporation assay (chemiluminescent ELISA); type: cell-based, human; conditions: HT-29, IC50 concentration
Protocol: as §1

[8] = test system: HeLa cells; test: Cell cycle analysis, PI flow cytometry; type: cell-based, human; conditions: IC50 concentration, 24 h
Protocol: (§2) Cells were seeded at a density of 2 × 10^5 cells/well in 6-well plates and incubated for 24 h at 37 °C in a CO2 incubator to form a monolayer. The cells were treated for 12 and 24 h with the isolated compounds at concentrations equivalent to the IC50 concentrations (as determined by the MTT reduction assay). After treatment, the cells were detached with trypsin, washed in PBS and the cell pellet was resuspended in 1 ml of 1% paraformaldehyde and placed on ice for 30 min. Ethanol (70%, v/v) was slowly added to the cells while the sample was vortexed to reduce cell clumping. The cells were stored at − 20 °C for 48 h, after which the cells were recovered by centrifugation at 4000 rpm for 10 min. The cell pellets were washed twice in PBS and then resuspended in 1 ml PBS containing 100 μg/ml RNase and 40 μg/ml propidium iodide. Cell cycle phase distribution was determined using a FACS Calibur Flow Cytometer (BD Biosciences Franklin Lakes, NJ, USA). The DNA content of 50,000 events was determined by ModFit software (Verity Software House, Topsham, ME), which provided histograms to evaluate the cell cycle distribution.

[9] = test system: MCF-7 cells; test: Cell cycle analysis, PI flow cytometry; type: cell-based, human; conditions: MCF-7, IC50 concentration
Protocol: as §2

[10] = test system: HT-29 cells; test: Cell cycle analysis, PI flow cytometry; type: cell-based, human; conditions: HT-29, IC50 concentration, 12 and 24 h
Protocol: as §2

[11] = parameters: method as in doi:10.1135/cccc20041506; conditions: at a neuro-active concentration; cited from earlier work
[12] = Homo sapiens, MTT, 24 h treatment, read-out: IC50
[13] = Homo sapiens, MCF7, MCF-7, MTT, 24 h treatment, read-out: IC50
[14] = Homo sapiens, HT-29, MTT, 24 h treatment, read-out: IC50
[15] = Homo sapiens, Fibroblast, KMST-6, MTT, 24 h treatment, read-out: IC50

`N.N.[Cl][Pt][Cl]` [Cisplatin] gave a Selectivity index [1] of 2.11, an IC50 ([1]; MTT, 24 h treatment, read-out: IC50) of 2.91 µM and an IC50 ([2]; MCF-7, MTT, 24 h treatment, read-out: IC50) of 10.6 µM. It also gave a Selectivity index [2] of 0.58, an IC50 ([3]; HT-29, MTT, 24 h treatment, read-out: IC50) of 7.07 µM and a Selectivity index [3] of 0.87. The IC50 ([4]; KMST-6, MTT, 24 h treatment, read-out: IC50) was 6.14 µM.

With `COc1cccc2c1C(=O)c1c(O)c3c(c(O)c1C2=O)C[C@@](O)(C(=O)CO)C[C@@H]3O[C@H]1C[C@H](N)[C@H](O)[C@H](C)O1` [Dox, Doxorubicin] the Selectivity index [1] was 1.31, the IC50 [1, 12] was 3.57 µM and the IC50 [2, 13] was 8.2 µM. For the same compound, the Selectivity index [2] was 0.57, the Selectivity index [3] was 0.27 and the IC50 [3, 14] was 17.4 µM. It also gave an IC50 [4, 15] of 4.68 µM.

`CC(=O)[C@H]1CC[C@H]2[C@@H]3CC=C4C[C@H](N)CC[C@]4(C)[C@H]3CC[C@]12C` [Compound 1, holamine] gave a Selectivity index [1] of 2.00, an IC50 [1, 12] of 51.4 µM and an IC50 [2, 13] of 42.8 µM. It also gave a Selectivity index [3] of 3.82, a Selectivity index ([3]; listed as C1) of 3.31 and an IC50 [3, 14] of 31.1 µM. The “Change in DNA synthesis between 24 and 48 h” value [5] was “significant reduction”, the “Change in DNA synthesis between 12 and 24 h” value [6] was “significant reduction” and the “Change in DNA synthesis between 12 and 24 h” value [7] was “significant reduction”. For the same compound, the “Cell population in G2/M-phase” value [8] was “significant decrease”, the “Cell population in G2/M-phase” value ([9]; 12 h) was “significant increase” and the “Cell population in G2/M-phase” value ([9]; 24 h) was “not significant”. For the same compound, the “Cell population in G2/M phase” value [10] was “significant increase” and the IC50 [4, 15] was 103 µM.

`CC(=O)[C@H]1CC[C@H]2[C@@H]3CC[C@H]4C[C@H](N)CC[C@]4(C)[C@H]3CC[C@]12C` [Compound 2, funtumine] gave an IC50 ([1]; Homo sapiens, 24 h) of 46.2 µM, an IC50 ([2]; Homo sapiens, MCF7, 24 h) of 52.7 µM and a Selectivity index [2] of 1.85. The Selectivity index [3] was 3.31, the Selectivity index ([3]; listed as C2) was 3.82 and the IC50 ([3]; Homo sapiens, HT-29, 24 h) was 22.4 µM. The “Change in DNA synthesis between 12 and 24 h” value [5] was “significant reductions”, the “Change in DNA synthesis between 24 and 48 h” value [6] was “significantly (P < 0.05) reduced” and the “Change in DNA synthesis between 12 and 24 h” value [7] was “significant reduction”. The “Change in DNA synthesis between 24 and 48 h” value [7] was “significant reduction”, the “Cell population in G2/M-phase” value ([9]; 12 h) was “significant increase” and the “Cell population in G2/M-phase” value ([9]; 24 h) was “significant increase”. The “Cell population in G2/M phase” value [10] was “significant increase”, the Cytotoxicity [11] was “no cytotoxicity” and the IC50 ([4]; Homo sapiens, Fibroblast, 24 h) was 85.5 µM.
